Data published in PMC11755562, “Peptide Inhibitor Assay for Allocating Functionally Important Accessible Sites Throughout a Protein Chain: Restriction Endonuclease EcoRI as a Model Protein System” (BioTech, 2024).
Entries after “also recorded” stand apart in the source; their conditions may differ.

Key:
[1] = molecular target: T1, EcoRI (Escherichia coli, UniProt P00642); test: Peptide inhibitor assay (PIA): EcoRI digestion of pCRII-TOPO-OR23 plasmid, fluorescence intensity of the excised OR23 band on agarose gel; format: biochemical; details: for level of inhibitory effect on EcoRI (in words) / relative fluorescence intensity of excised OR23 fragment / significance of inhibition of EcoRI activity versus no peptide / inhibitory effect compared with the original peptide (in words): 3 h; for level of inhibitory effect on EcoRI (in words): EcoRI:peptide 1:500, relative fluorescence intensity; for relative fluorescence intensity of excised OR23 fragment: relative to no peptide, EcoRI:peptide 1:500 molar ratio, 37 °C, 0.015 mM Mg2+, mean of n = 3; for significance of inhibition of EcoRI activity versus no peptide: EcoRI:peptide 1:500, Dunnett's test versus no peptide; for inhibitory effect compared with the original peptide (in words): EcoRI:peptide 1:500, randomized peptides by Student's t-test versus each endogenous BP
T1 construct: The first M is removed after translation in this protein; purchased New England Biolabs
T1 sequence (P00642 2-277): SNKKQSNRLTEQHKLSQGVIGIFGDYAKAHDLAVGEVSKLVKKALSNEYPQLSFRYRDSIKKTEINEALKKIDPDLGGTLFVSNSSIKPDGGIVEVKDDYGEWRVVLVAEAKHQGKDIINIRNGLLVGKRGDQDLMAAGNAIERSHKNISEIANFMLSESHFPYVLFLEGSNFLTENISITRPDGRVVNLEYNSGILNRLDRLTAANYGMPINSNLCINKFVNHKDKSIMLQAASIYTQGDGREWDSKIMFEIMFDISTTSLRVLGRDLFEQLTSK
Method: Peptide synthesis was performed by GenScript Japan (Tokyo, Japan). All peptides were confirmed to be more than 75% pure via high-performance liquid chromatography (HPLC) and to have theoretical molecular weights via mass spectrometry (MS). The peptides were dissolved in DMSO (dimethyl sulfoxide) and were prepared at 5.59 × 10^−9 mol/μL (5.59 mM). When 1.0 μL of this peptide mixture was mixed in a tube for the inhibition of EcoRI catalytic activity, the molar ratio of EcoRI to peptide was 1:500. This concentration in molar equivalence was used throughout this study unless otherwise noted.
Purified and concentrated EcoRI (20,000 U/mL, approximately 338 μg/mL, 1.12 × 10^−[…]) was obtained from New England Biolabs (Ipswich, MA, USA). To quantify and visualize the inhibitory effects of the peptides, the enzymatic reaction conditions were set so that at least three hours of incubation were required to completely digest the substrate plasmid DNA with EcoRI. To do so, we used a low Mg^2+ concentration (0.015 mM) in the reaction mixture in contrast to the optimum concentration of Mg^2+ for EcoRI (10 mM).
(§1) All master solutions and samples were prepared on ice. A single reaction tube contained the following common ingredients: autoclaved DNase-free RNase-free deionized H2O (12.5 μL) (Nippon Gene), 10× NE Buffer Mg^2+-free (2.0 μL), pCRII-TOPO-OR23 plasmid DNA (2.0 μL of 40 ng/μL solution), MgCl2 (1.5 μL of 0.20 mM solution), and EcoRI (1.0 μL). A master solution containing these ingredients without DMSO or a peptide was first prepared for the number of sample tubes. The master solution was aliquoted into 1.5 mL spin tubes (19.0 μL per tube). Then, 1.0 μL of DMSO or a peptide sample was added, and the mixture was incubated at 37 °C. A negative control with DMSO but without a peptide (“no peptide” control) was run in every assay. When the digestion efficiency was compared, another negative control with autoclaved DNase-free RNase-free H2O without EcoRI was prepared. After the reaction, the samples were quickly cooled on ice for ten minutes and then stored at −80 °C until agarose gel electrophoresis. The above protocol was conducted for all peptides (including BP19.5, BP19.5N, and BP19.5C) used in the present study unless otherwise noted.
To quantify EcoRI activity after incubation of a reaction mixture, digested pCRII-TOPO-OR23 plasmid DNA was examined via agarose gel electrophoresis. We first prepared a 25 mL solution of 1.0% agarose (Nippon Gene) in TAE (Tris-acetate-EDTA) buffer (Promega, Madison, WI, USA) to produce an agarose gel. An ethidium bromide solution (0.5 μL of 10 mg/mL) (Promega) was added before gelation. After incubation with EcoRI, the fluorescence intensity of the band of the excised OR23 fragment was measured via an ImageQuant LAS4000 (GE Healthcare Japan, Tokyo, Japan) with the following conditions: “Exposure Type”: Precision; “Exposure Time”: Manual 1/8 sec; “Sensitivity/Resolution”: Standard; and “Fluorescent Method”: Epi illumination; EtBr; UV (Trans UV) light; 6-5DF50 Filter; and F2.8 Iris.
For statistical analyses, Student’s t-test (unpaired and bi-sided), Dunnett’s test, and Pearson correlation analysis were performed via Microsoft Excel (Office 365) and JSTAT (Yokohama, Japan). The Dunnett’s test was performed for each experimental group that was examined simultaneously in the laboratory, in comparison to the “no peptide” control group that was examined simultaneously. The repeated measure mode of the Dunnett’s test was used on the assumption that there was no interaction between samples.

[2] = molecular target: T1, EcoRI; test: Nonspecific nuclease activity of EcoRI reaction mixture with peptide (plasmid DNA degradation); format: biochemical; details: EcoRI plus peptide 1:500, 3 h, n = 3
Method: A recombinant plasmid, pCRII-TOPO (Invitrogen, Waltham, MA, USA), containing a PCR fragment of the full-length cDNA (978 bp) of the mouse odorant receptor OR23 [82, 83, 84, 85, 86] at the EcoRI cloning site (GAATTC) was used as a DNA substrate for EcoRI. […] This pCRII-TOPO-OR23 plasmid was prepared from TOP10F’ Escherichia coli (Invitrogen) using ATP Plasmid Mini Kit (ATP Biotech, Taipei, ROC). The plasmid solution was prepared at 40 ng/μL by adding autoclaved DNase-free RNase-free deionized H2O (Nippon Gene, Tokyo, Japan). The DNA concentrations were measured with a Qubit fluorometer (Invitrogen).
as §1
This reaction mixture containing EcoRI and BP19.5 appeared to degrade the plasmid DNA entirely. […] The DNA concentration at 3 h was 3.297 ± 0.006 ng/μL without any peptide in the reaction mixture and 0.332 ± 0.003 ng/μL with BP19.5, indicating a statistically significant difference (n = 3; unpaired bi-sided Student’s t-test; p = 1.6 × 10^−11). […] Therefore, BP19.5 and its derivatives are likely to cause EcoRI to become a nonspecific nuclease. In other words, BP19.5 was likely a specificity/activity modifier of EcoRI instead of an inhibitor.

LGRDLFEQLTSK [BP25]
level of inhibitory effect on EcoRI (in words) ([1]; n = 3): especially notable; also recorded: most inhibitory; also recorded: most effective
relative fluorescence intensity of excised OR23 fragment [1]: less than 0.3

LSQGVIGIFGDY [BP2.5]
level of inhibitory effect on EcoRI (in words) ([1]; n = 3): notable
relative fluorescence intensity of excised OR23 fragment [1]: less than 0.3

NAIERSHKNIS [BP13.5]
level of inhibitory effect on EcoRI (in words) ([1]; n = 3): not very inhibitory

NEYPQLAFRYRDS [BP5]
significance of inhibition of EcoRI activity versus no peptide ([1]; n = 3): significantly inhibitory
level of inhibitory effect on EcoRI (in words) ([1]; n = 3): highly inhibitory; also recorded: most effective
relative fluorescence intensity of excised OR23 fragment [1]: less than 0.3

NGLLVG [BP12N]
inhibitory effect compared with the original peptide (in words) ([1]; n = 3): more inhibitory than the original

NISEIA [BP14M]
level of inhibitory effect on EcoRI (in words) ([1]; n = 3): noninhibitory

NLCINK [BP19.5C, deletion peptide from BP19.5]
plasmid DNA degradation / nonspecific nuclease induction (agarose gel electrophoresis, in words) [2]: no DNA was detected; also recorded: induced such nuclease activity

NSGILNRLDRLTA [BP18]
level of inhibitory effect on EcoRI (in words) ([1]; n = 3): especially notable; also recorded: most effective
relative fluorescence intensity of excised OR23 fragment [1]: less than 0.3

PINSNL [BP19.5N, deletion peptide from BP19.5]
plasmid DNA degradation / nonspecific nuclease induction (agarose gel electrophoresis, in words) [2]: no DNA was detected; also recorded: induced such nuclease activity

PINSNLCINK [BP19.5]
plasmid DNA degradation / nonspecific nuclease induction (agarose gel electrophoresis, in words) [2]: no DNA fragment or plasmid DNA was detected
DNA concentration at 3 h in the reaction mixture ([2]; no peptide 3.297 ± 0.006): 0.332 ± 0.003 ng/µL

RNGLLVGKRGDQD [BP12]
significance of inhibition of EcoRI activity versus no peptide ([1]; n = 3): significantly inhibited EcoRI activity

SHKNIS [BP14N]
level of inhibitory effect on EcoRI (in words) ([1]; n = 3): noninhibitory

SHKNISEIANFM [BP14]
significance of inhibition of EcoRI activity versus no peptide ([1]; n = 3): significantly inhibited EcoRI activity
level of inhibitory effect on EcoRI (in words) ([1]; n = 3): especially notable; also recorded: moderate inhibitory effect
inhibitory effect, fluorescence intensity versus incubation time (in words) ([1]; time course until 5 h, EcoRI:peptide 1:500, compared with no peptide, n = 3): relatively high inhibitory effects
concentration dependence of the inhibitory effect ([1]; ×5 to ×500 molar equivalence to EcoRI, fixed time point 3 h, n = 3): concentration dependent

SNKKQSNRLTEQHK [BP1]
significance of inhibition of EcoRI activity versus no peptide ([1]; n = 3): significantly inhibitory
level of inhibitory effect on EcoRI (in words) ([1]; n = 3): reasonably inhibitory

SSIKPDGGIVE [BP8.5]
level of inhibitory effect on EcoRI (in words) ([1]; n = 3): not very inhibitory

STTSLRVLGRDLFE [BP24]
level of inhibitory effect on EcoRI (in words) ([1]; n = 3): did not work well

TRPDGRVVNLEY [BP17]
level of inhibitory effect on EcoRI (in words) ([1]; n = 3): not very inhibitory

VEGQELAVKAHRWV [BP10R1]
inhibitory effect compared with the original peptide (in words) ([1]; n = 3): significantly more inhibitory

VGLILSTGDFDP [BP7R1]
inhibitory effect compared with the original peptide (in words) ([1]; n = 3): as inhibitory as the original peptides

VIGIFGDYAKAHDL [BP3]
significance of inhibition of EcoRI activity versus no peptide ([1]; n = 3): significantly inhibitory
level of inhibitory effect on EcoRI (in words) ([1]; n = 3): highly inhibitory; also recorded: most effective
relative fluorescence intensity of excised OR23 fragment [1]: less than 0.3

VKDDYG [BP9C]
level of inhibitory effect on EcoRI (in words) ([1]; n = 3): noninhibitory

VNHKDKSIMLQA [BP20.5]
level of inhibitory effect on EcoRI (in words) ([1]; n = 3): did not show high inhibition

VVNLEYNSGILN [BP17.5]
level of inhibitory effect on EcoRI (in words) ([1]; n = 3): not very inhibitory

YVLFLE [BP15C]
level of inhibitory effect on EcoRI (in words) ([1]; n = 3): most effective
inhibitory effect compared with the original peptide (in words) ([1]; n = 3): more inhibitory than the original BP15
relative fluorescence intensity of excised OR23 fragment [1]: less than 0.3
